Measurements taken from ChEMBL document CHEMBL3286278, “Antifungal and cytotoxic 2-acylcyclohexane-1,3-diones from Peperomia alata and P. trineura” (J Nat Prod, 2014).
pIC50: −log10 of the molar value.

What was measured:
[1] = tested on: Cladosporium cladosporioides; experiment: Antifungal activity against Cladosporium cladosporioides after 48 hrs; type: functional
[2] = tested on: Cladosporium sphaerospermum; experiment: Antifungal activity against Cladosporium sphaerospermum after 48 hrs; type: functional
[3] = tested on: K562; experiment: Cytotoxicity against human K562 cells after 48 hrs by MTT assay; type: functional, cell-based; conditions: K562, 48 h
[4] = Cytotoxicity against human NALM6 cells after 48 hrs by MTT assay; type: functional, cell-based; conditions: NALM-6, 48 h

Molecule	Activity [1] [µg]	Activity [2] [µg]	pIC50 [3]	pIC50 [4]
O=C(CC/C=C/c1ccccc1)C1=C(O)CCCC1=O	0.25	0.25		
O=C(CCCCCCCCCCCCCCc1ccc2c(c1)OCO2)C1=C(O)CCCC1=O	5	5		
O=C(CCCCCCCC/C=C/c1ccccc1)C1=C(O)CCCC1=O	5	25		
O=C1CCCC(O)=C1C(=O)CCc1ccc2c(c1)OCO2	0.5	0.5		
NYSTATIN	1	1		
O=C(CCCCCCCCCCCCCCCCc1ccc2c(c1)OCO2)C1=C(O)CCCC1=O	5	5		
CCCCC/C=C\CCCCCCCCC(=O)C1=C(O)CC[C@@H](O)C1=O	1	10	4.59	4.84
Clc1ccc(COC(Cn2ccnc2)c2ccc(Cl)cc2Cl)c(Cl)c1 (stereo not given) [MICONAZOLE]	1	1		
CCCCC/C=C\CCCCCCCCC(=O)C1=C(O)CCCC1=O	10	25		
